The record followed here is patent publication US10702521B2, “Methods for treating neisseria gonorrhoeae infection with substituted 1,2-dihydro-2A,5,8A-triazaacenaphthylene-3,8-diones” (priority 2014, dated 2020).

Where a name gives a salt, the structure may show the parent alone. Some results are limits rather than exact numbers.

The test system of the first test is Mycobacterium tuberculosis H37Rv. Briefly: Mycobacterium tuberculosis H37Rv Inhibition Assay (resazurin MIC). The class given is cell-based. To be noted: 144 h, H37Rv strain, six days incubation, resazurin fluorescence after 48 hours, read-out: MIC value.
For `O=C1CSc2ccc(CNC3CCN(CC4Cn5c(=O)ccc6ccc(=O)n4c65)CC3)cc2N1` (racemic) [Example 12, 1-[(4-{[(3-Oxo-3,4-dihydro-2H-1,4-benzothiazin-6-yl)methyl]amino}-1-piperidinyl)methyl]-1,2-dihydro-4H,9H-imidazo[1,2,3-ij]-1,8-naphthyridine-4,9-dione hydrochloride (2:1 mixture of R:S)], the MIC is less than 2 mg/L.

Turning to `Cl.O=c1ccc2ncc(=O)n3c2n1C[C@H]3CN1CCC(NCc2cc3c(cn2)OCCS3)CC1` [Example 19A, (2R)-2-({4-[(2,3-Dihydro[1,4]oxathiino[2,3-c]pyridin-7-ylmethyl)amino]-1-piperidinyl}methyl)-1,2-dihydro-3H,8H-2a,5,8a-triazaacenaphthylene-3,8-dione hydrochloride], the minimal inhibitory concentration (MIC) was less than 2 mg/L.

On to `O=c1ccc2ccc(=O)n3c2n1C[C@H]3CN1CCC(NCc2ccc3c(c2)OCCO3)CC1` [Example 30, (1R)-1-({4-[(2,3-Dihydro-1,4-benzodioxin-6-ylmethyl)amino]-1-piperidinyl}methyl)-1,2-dihydro-4H,9H-imidazo[1,2,3-ij]-1,8-naphthyridine-4,9-dione hydrochloride], for which the minimum inhibitory concentration (MIC) was less than 2 mg/L. On to `O=c1ccc2ccc(=O)n3c2n1C[C@H]3CN1CCC(NCc2cc(F)c3c(c2)OCCO3)CC1` [Example 31, (1R)-1-[(4-{[(8-Fluoro-2,3-dihydro-1,4-benzodioxin-6-yl)methyl]amino}-1-piperidinyl)methyl]-1,2-dihydro-4H,9H-imidazo[1,2,3-ij]-1,8-naphthyridine-4,9-dione hydrochloride], for which the MIC was less than 2 mg/L. As for `Cl.Cl.O=C1COc2cc(Cl)c(CNC3CCN(C[C@@H]4Cn5c(=O)ccc6ccc(=O)n4c65)CC3)nc2N1` [Example 32, (1R)-1-[(4-{[(7-Chloro-3-oxo-3,4-dihydro-2H-pyrido[3,2-b][1,4]oxazin-6-yl)methyl]amino}-1-piperidinyl)methyl]-1,2-dihydro-4H,9H-imidazo[1,2,3-ij]-1,8-naphthyridine-4,9-dione dihydrochloride], the minimum inhibitory concentration (MIC) was less than 2 mg/L.

Staying with this test, now noted: 144 h, read-out: MIC value, H37Rv strain, six days incubation, resazurin fluorescence after 48 hours.
For the compound `O=c1ccc2ccc(=O)n3c2n1C[C@H]3CN1CCC(NCc2cc3c(cn2)OCS3)CC1` [Example 5A, (1R)-1-({4-[([1,3]Oxathiolo[5,4-c]pyridin-6-ylmethyl)amino]-1-piperidinyl}methyl)-1,2-dihydro-4H,9H-imidazo[1,2,3-ij]-1,8-naphthyridine-4,9-dione hydrochloride], the MIC was less than 2 mg/L. On the same count and under the same terms, then `O=c1ccc2ccc(=O)n3c2n1C[C@H]3CN1CCC(NCc2cc3c(cn2)CCCC3)CC1` [Example 7, (1R)-1-({4-[(5,6,7,8-Tetrahydro-3-isoquinolinylmethyl)amino]-1-piperidinyl}methyl)-1,2-dihydro-4H,9H-imidazo[1,2,3-ij]-1,8-naphthyridine-4,9-dione hydrochloride], with less than 2 mg/L; and `O=c1ccc2ccc(=O)n3c2n1C[C@H]3CN1CCC(NCc2cc3c(cn2)CCC3)CC1` [Example 8, (1R)-1-({4-[(6,7-Dihydro-5H-cyclopenta[c]pyridin-3-ylmethyl)amino]-1-piperidinyl}methyl)-1,2-dihydro-4H,9H-imidazo[1,2,3-ij]-1,8-naphthyridine-4,9-dione hydrochloride], with less than 2 mg/L; and `O=c1cnc2ccc(=O)n3c2n1C[C@H]3CN1CCC(NCc2cc3c(cn2)OCS3)CC1` [Example 13A, (1R)-1-({4-[([1,3]Oxathiolo[5,4-c]pyridin-6-ylmethyl)amino]-1-piperidinyl}methyl)-1,2-dihydro-3H,8H-2a,5,8a-triazaacenaphthylene-3,8-dione hydrochloride], with less than 2 mg/L. Take `O=c1cnc2ccc(=O)n3c2n1C[C@H]3CN1CCC(NCc2cc3c(cn2)OCCS3)CC1` [Example 14, (1R)-1-({4-[(2,3-Dihydro[1,4]oxathiino[2,3-c]pyridin-7-ylmethyl)amino]-1-piperidinyl}methyl)-1,2-dihydro-3H,8H-2a,5,8a-triazaacenaphthylene-3,8-dione hydrochloride]: the MIC was less than 2 mg/L. In the case of `O=c1ccc2ncc(=O)n3c2n1C[C@H]3CN1CCC(NCc2cc3c(cn2)OCS3)CC1` [Example 16A, (2R)-2-({4-[([1,3]Oxathiolo[5,4-c]pyridin-6-ylmethyl)amino]-1-piperidinyl}methyl)-1,2-dihydro-3H,8H-2a,5,8a-triazaacenaphthylene-3,8-dione hydrochloride], the MIC is less than 2 mg/L. Regarding `O=c1ccc2ncc(=O)n3c2n1C[C@H]3CN1CCC(NCc2ccc3nsnc3c2)CC1` [Example 25, (2R)-2-({4-[(2,1,3-Benzothiadiazol-5-ylmethyl)amino]-1-piperidinyl}methyl)-1,2-dihydro-3H,8H-2a,5,8a-triazaacenaphthylene-3,8-dione hydrochloride], the MIC is no more than 1 mg/L. `O=c1ccc2ncc(=O)n3c2n1C[C@H]3CN1CCC(NCc2cc3c(cc2F)OCCO3)CC1` [Example 26, (2R)-2-[(4-{[(7-Fluoro-2,3-dihydro-1,4-benzodioxin-6-yl)methyl]amino}-1-piperidinyl)methyl]-1,2-dihydro-3H,8H-2a,5,8a-triazaacenaphthylene-3,8-dione hydrochloride]: the minimum inhibitory concentration (MIC) was no more than 1 mg/L. On to `O=c1cnc2ccc(=O)n3c2n1C[C@H]3CN1CCC(NCc2cc3c(cn2)OCCC3)CC1` [Example 37, (1R)-1-({4-[(3,4-Dihydro-2H-pyrano[2,3-c]pyridin-6-ylmethyl)amino]-1-piperidinyl}methyl)-1,2-dihydro-3H,8H-2a,5,8a-triazaacenaphthylene-3,8-dione hydrochloride], for which the minimum inhibitory concentration (MIC) was less than 2 mg/L.

For `O=c1ccc2ncc(=O)n3c2n1C[C@H]3CN1CCC(NCc2ccc3c(c2)OCCO3)CC1` [Example 40, (2R)-2-({4-[(2,3-Dihydro-1,4-benzodioxin-6-ylmethyl)amino]-1-piperidinyl}methyl)-1,2-dihydro-3H,8H-2a,5,8a-triazaacenaphthylene-3,8-dione hydrochloride], the MIC is less than 2 mg/L.

Staying with this test, now noted: H37Rv strain, six days incubation, resazurin fluorescence after 48 hours, read-out: MIC value.
Take `O=c1ccc2ccc(=O)n3c2n1CC3CN1CCC(NCc2cc3c(cn2)OCCS3)CC1` (racemic) [Example 63]: the MIC is less than 2 mg/L. Take `CC1(NCc2cc3c(cn2)OCCS3)CCN(C[C@@H]2Cn3c(=O)ccc4ccc(=O)n2c43)CC1` [Example 23, (1R)-1-({4-[(2,3-Dihydro[1,4]oxathiino[2,3-c]pyridin-7-ylmethyl)amino]-4-methyl-1-piperidinyl}methyl)-1,2-dihydro-4H,9H-imidazo[1,2,3-ij]-1,8-naphthyridine-4,9-dione hydrochloride]: the minimum inhibitory concentration (MIC) was less than 2 mg/L. Regarding `CC1(NCc2cc3c(cn2)OCS3)CCN(C[C@@H]2Cn3c(=O)ccc4ccc(=O)n2c43)CC1.Cl` [Example 24, (1R)-1-({4-Methyl-4-[([1,3]oxathiolo[5,4-c]pyridin-6-ylmethyl)amino]-1-piperidinyl}methyl)-1,2-dihydro-4H,9H-imidazo[1,2,3-ij]-1,8-naphthyridine-4,9-dione hydrochloride], the MIC was less than 2 mg/L. In the case of `O=c1ccc2ncc(=O)n3c2n1C[C@H]3CN1CCC(NCc2cc3c(cn2)SCO3)CC1` [Example 28, (2R)-2-({4-[([1,3]Oxathiolo[4,5-c]pyridin-6-ylmethyl)amino]-1-piperidinyl}methyl)-1,2-dihydro-3H,8H-2a,5,8a-triazaacenaphthylene-3,8-dione hydrochloride], the MIC is less than 2 mg/L. On to `O=C1CSc2ccc(CNC3CCN(C[C@@H]4Cn5c(=O)ccc6ncc(=O)n4c65)CC3)nc2N1` [Example 29, (2R)-2-[(4-{[(3-Oxo-3,4-dihydro-2H-pyrido[3,2-b][1,4]thiazin-6-yl)methyl]amino}-1-piperidinyl)methyl]-1,2-dihydro-3H,8H-2a,5,8a-triazaacenaphthylene-3,8-dione hydrochloride], for which the MIC was less than 2 mg/L.

`Cl.N#Cc1cc(CNC2CCN(C[C@@H]3Cn4c(=O)ccc5ncc(=O)n3c54)CC2)cc2c1OCCO2` [Example 42, 7-{[(1-{[(2R)-3,8-Dioxo-1,2-dihydro-3H,8H-2a,5,8a-triazaacenaphthylen-2-yl]methyl}-4-piperidinyl)amino]methyl}-2,3-dihydro-1,4-benzodioxin-5-carbonitrile hydrochloride]: the MIC is less than 2 mg/L.

The test is the same for the next values; noted with them: read-out: MIC value, H37Rv strain, six days incubation, resazurin fluorescence after 48 hours.
Regarding `O=c1ccc2ccc(=O)n3c2n1CC3CN1CCC(NCc2cc3c(cn2)OCS3)CC1` (centres unmarked) [Example 2, 1-({4-[([1,3]Oxathiolo[5,4-c]pyridin-6-ylmethyl)amino]-1-piperidinyl}methyl)-1,2-dihydro-4H,9H-imidazo[1,2,3-ij]-1,8-naphthyridine-4,9-dione hydrochloride], the minimum inhibitory concentration (MIC) is less than 2 mg/L.

On to `O=c1ccc2ccc(=O)n3c2n1C[C@H]3CN1CCC(NCc2cc3c(cn2)OCCS3)CC1` [Example 6A, (1R)-1-({4-[(2,3-Dihydro[1,4]oxathiino[2,3-c]pyridin-7-ylmethyl)amino]-1-piperidinyl}methyl)-1,2-dihydro-4H,9H-imidazo[1,2,3-ij]-1,8-naphthyridine-4,9-dione hydrochloride], for which the MIC was less than 2 mg/L.

For `O=c1ccc2ncc(=O)n3c2n1CC3CN1CCC(NCc2cc3c(cn2)OCCS3)CC1` (centres unmarked) [Example 20, 2-({4-[(2,3-Dihydro[1,4]oxathiino[2,3-c]pyridin-7-ylmethyl)amino]-1-piperidinyl}methyl)-1,2-dihydro-3H,8H-2a,5,8a-triazaacenaphthylene-3,8-dione hydrochloride], the minimum inhibitory concentration (MIC) is less than 2 mg/L. Consider `O=C1CSc2cnc(CNC3CCN(C[C@@H]4Cn5c(=O)ccc6ccc(=O)n4c65)CC3)nc2N1` [Example 34, (1R)-1-[(4-{[(7-Oxo-6,7-dihydro-1H-pyrimido[5,4-b][1,4]thiazin-2-yl)methyl]amino}-1-piperidinyl)methyl]-1,2-dihydro-4H,9H-imidazo[1,2,3-ij]-1,8-naphthyridine-4,9-dione dihydrochloride], for which the minimum inhibitory concentration (MIC) is less than 2 mg/L. Turning to `O=c1cnc2ccc(=O)n3c2n1C[C@H]3CN1CCC(NCc2ccc3c(c2)OCCO3)CC1` [Example 44, (1R)-1-({4-[(2,3-Dihydro-1,4-benzodioxin-6-ylmethyl)amino]-1-piperidinyl}methyl)-1,2-dihydro-3H,8H-2a,5,8a-triazaacenaphthylene-3,8-dione hydrochloride], the MIC is less than 2 mg/L.
